Results published in patent publication US6872850B2, “Small molecule inhibitors of secretion of proteins encoded by ARE-mRNAs” (Message Pharmaceuticals, priority 2001, dated 2005).
“Also recorded” adds a separate entry of the source.

Tests used:
TNFα = assay: ELISA of TNFα secreted into the media after LPS; type: cell-based; details: for effect on amount of secreted TNFα (direct TNFα secretion assay), in words: after LPS stimulation
Experimental: The ability of candidate compounds to reduce the amount of secreted TNFα was also directly tested using an ELISA assay. […] A standard ELISA analysis was used to measure the amount of TNFα secreted into the media (see, for example, Ausubel et al., supra). The effect of a candidate compound on TNFα secretion in this assay is reported in the following tables as a percentage of the amount of TNFα secreted by a control cell that was administered a DMSO vehicle control only.

3′ UTR of the TNFα gene = assay: cell-based luciferase reporter assay, 5B cell line (luciferase gene with entire 3′ UTR of the TNFα gene); set-up: species or system mouse; details: for Luciferase 5B (% of DMSO control): 1 h, then LPS, 5B cell line
Experimental: The candidate compounds were tested in a high-throughput, cell-based luciferase reporter assay. For this assay, a commercially available mouse macrophage Raw 264.7 cell line was stably transfected with a construct containing the CMV promoter operably linked to the luciferase gene which was modified using standard molecular biology techniques to contain the entire 3′ UTR of the TNFα gene. This 3′ UTR is important for the stability and translation of TNFα in cells. To control for effects of candidate compounds that are not specific for TNFα, a control cell line, called “3B,” was generated by stably transfecting the 264.7 cell line with a commercially available construct containing the luciferase gene (without the addition of the heterologous 3′ UTR of the TNFα gene) under the regulation of the CMV promoter.
[…] Then, lipopolysaccharide (LPS) was added to stimulate TNFα secretion. Luciferase activity was measured by determining the luminescence intensity due to the reaction of lucifern, ATP, Mg^2+, and molecular O2 (see, for example, Ausubel et al., supra). The luciferase activity in a cell incubated with a candidate compound was reported as a percentage of the luciferase activity for the corresponding cell incubated with DMSO vehicle only.
After correction for any effect caused by the administration of the DMSO only vehicle control, the effect of a candidate compound on luciferase activity in the 3B control cell line represents the global effect of the compound on any step required for expression or activity of luciferase protein, such as luciferase gene transcription, mRNA processing, mRNA stability, translation, protein stability, or enzymatic activity. […] In this case, the luciferase activity in the 5B cell line treated with the DMSO vehicle control is similar to the luciferase activity in the control 3B cell line treated with the candidate compound. Thus, the response of the 5B cell line (as a percent of the DMSO control) and the ratio of the luciferase activity in the 5B cell line (as a percent of the DMSO control) to the luciferase activity in the control 3B cell line (as a percent of the DMSO control) are similar. In desirable embodiments, the response of the 5B cell line and the 5B/3B ratio differ by less than 50, 40, 30, 20, 10, or 5%.

[1] = 10 μM compound, ratio of 5B to control 3B cell line

Molecule	TNFα Secretion (% of DMSO control) (TNFα; 10 μM compound, 1 h, then LPS)	Luciferase 5B (% of DMSO control) (3′ UTR of the TNFα gene; 10 μM compound)	Luciferase 5B/3B (% of DMSO control 5B)/(% of DMSO control 3B) (3′ UTR of the TNFα gene; [1])	other results
C/C(=N\NC(=N)N)c1cccc(C(=O)N[C@@H](CC(C)C)C(=O)N2CCN(C(=O)[C@H](Cc3ccccc3)NCc3ccc([N+](=O)[O-])cc3)CC2)c1 [MES 10243]	73 % of DMSO control	81 % of DMSO control	79 (% of DMSO control 5B)/(% of D	
(E,E)-Bisguanylhydrazone of 1-[(S)-N-(4-benzoylbenzoyl)-2-amino-3-phenylpropanoyl]-4-[(2S)-N-(4-benzoylbenzoyl)-2-amino-4-methylpentanoyl]-1,4-piperazine bis trifluoroacetate [MES 10164]	45 % of DMSO control	29 % of DMSO control	31 (% of DMSO control 5B)/(% of DMSO control 3B)	effect on amount of secreted TNFα (direct TNFα secretion assay), in words (TNFα): inhibited TNFα secretion; effect on luciferase activity in the 5B cell line (luciferase assay), in words (3′ UTR of the TNFα gene): inhibited TNFα secretion
CC(C)C[C@H](NC(=O)c1ccc(C(=O)c2ccccc2)cc1)C(=O)N1CCN(C(=O)CCC(=O)N2CCN(c3ccccc3)CC2)CC1 [MES 10230]	77 % of DMSO control	41 % of DMSO control	52 (% of DMSO control 5B)/(% of D	
C/C(=N\N=C(N)N)c1cccc(C(=O)NCCNC(=O)[C@H](Cc2ccccc2)NC(=O)c2ccc(/C(=N\N=C(N)N)c3ccccc3)cc2)c1.O=C(O)C(F)(F)F.O=C(O)C(F)(F)F [MES 10092, (1-Z,4-E)-Bisguanylhydrazone of 1-[(S)-N-(4-benzoylbenzoyl)-2-amino-3-phenylpropanoyl]-4-(3-acetylbenzoyl)-1,4-diazabutane bis trifluoroacetate]				TNFα Secretion (% of DMSO control) (TNFα; 1 μM compound (Table 11)): 108 % of DM80 control; TNFα Secretion (% of DMSO control) (TNFα; 3 μM compound (Table 11)): 81 % of DM80 control; TNFα Secretion (% of DMSO control) (TNFα; 10 μM compound (Table 11)): 107 % of DM80 control; Luciferase 5B/3B (% of DMSO control 5B)/(% of DMSO control 3B) (3′ UTR of the TNFα gene; 1 μM compound (Table 11)): 100 (% of DMSO control 5B)/(% of D; Luciferase 5B/3B (% of DMSO control 5B)/(% of DMSO control 3B) (3′ UTR of the TNFα gene; 3 μM compound (Table 11)): 78 (% of DMSO control 5B)/(% of D; Luciferase 5B/3B (% of DMSO control 5B)/(% of DMSO control 3B) (3′ UTR of the TNFα gene; 10 μM compound (Table 11)): 69 (% of DMSO control 5B)/(% of D
CC(C)CC(NC(=O)c1ccc(C(=NNC(=N)N)c2ccccc2)cc1)C(=O)N1CCN(C(=O)C(Cc2ccc(-c3ccccc3)cc2)NC(=O)c2ccc(C(=NNC(=N)N)c3ccccc3)cc2)CC1 (mixture of isomers) [MES 10193]	20 % of DMSO control	23 % of DMSO control	38 (% of DMSO control 5B)/(% of DMSO control 3B)	
CC(C)CC(NC(=O)c1ccc(C(=NNC(=N)N)c2ccccc2)cc1)C(=O)N1CCN(C(=O)C(Cc2ccc(Cl)cc2)NC(=O)c2ccc(C(=NNC(=N)N)c3ccccc3)cc2)CC1 (mixture of isomers) [MES 10192]	17 % of DMSO control	37 % of DMSO control	47 (% of DMSO control 5B)/(% of DMSO control 3B)	
CC(=NNC(=N)N)c1cccc(C(=O)NC(CC(C)C)C(=O)N2CCN(C(=O)C(Cc3ccc(Cl)cc3)NC(=O)c3ccc(C(=NNC(=N)N)c4ccccc4)cc3)CC2)c1 (mixture of isomers) [MES 10258]	42 % of DMSO control	43 % of DMSO control	39 (% of DMSO control 5B)/(% of DMSO control 3B)	
CCCCC(NC(=O)c1cccc(C(C)=NNC(=N)N)c1)C(=O)N1CCN(C(=O)C(Cc2ccccc2)NC(=O)c2ccc(C(=NNC(=N)N)c3ccccc3)cc2)CC1 (mixture of isomers) [MES 10185]	37 % of DMSO control	31 % of DMSO control	35 (% of DMSO control 5B)/(% of DMSO control 3B)	effect on luciferase activity in the 5B cell line (luciferase assay), in words (3′ UTR of the TNFα gene): inhibited TNFα secretion
CC(C)CC(NC(=O)c1ccc(C(=NNC(=N)N)c2ccccc2)cc1)C(=O)N1CCN(C(=O)C(Cc2ccc(F)cc2)NC(=O)c2ccc(C(=NNC(=N)N)c3ccccc3)cc2)CC1 (mixture of isomers) [MES 10236]	34 % of DMSO control	18 % of DMSO control	25 (% of DMSO control 5B)/(% of DMSO control 3B)	
CC(=NNC(=N)N)c1cccc(C(=O)NC(CC(C)C)C(=O)N2CCN(C(=O)C(Cc3ccc4ccccc4c3)NC(=O)c3ccc(C(=NNC(=N)N)c4ccccc4)cc3)CC2)c1 (mixture of isomers) [MES 10261]	40 % of DMSO control	76 % of DMSO control	71 (% of DMSO control 5B)/(% of DMSO control 3B)	
(1-Z,4-E)-Bisguanylhydrazone of 1-[(S)-N-(4-benzoylbenzoyl)-2-amino-3-phenylpropanoyl]-4-[(2S)-N-(3-acetylbenzoyl)-2-amino-4-methylpentanoyl]-piperazine bis trifluoroacetate [MES 10172]	60 % of DMSO control	38 % of DMSO control	49 (% of DMSO control 5B)/(% of DMSO control 3B)	
CC(=NNC(=N)N)c1ccc(C(=O)NC(Cc2ccccc2)C(=O)N2CCN(C(=O)C(CC(C)C)NC(=O)c3cccc(C(C)=NNC(=N)N)c3)CC2)cc1 (mixture of isomers) [MES 11452]	88 % of DMSO control	13 % of DMSO control	50 (% of DMSO control 5B)/(% of D	effect on amount of secreted TNFα (direct TNFα secretion assay), in words (TNFα): decreased the amount of secreted TNFα
CC(C)CC(NC(=O)c1ccc(C(=NN=C(N)N)c2ccccc2)cc1)C(=O)NCCCNC(=O)C(Cc1ccccc1)NC(=O)c1ccc(C(=NN=C(N)N)c2ccccc2)cc1 (mixture of isomers) [MES 11561]	41 % of DMSO control	24 % of DMSO control	26 (% of DMSO control 5B)/(% of D	effect on amount of secreted TNFα (direct TNFα secretion assay), in words (TNFα): decreased the amount of secreted TNFα; effect on luciferase activity in the 5B cell line (luciferase assay), in words (3′ UTR of the TNFα gene): decrease TNFα secretion; also recorded: greatest inhibition
